Data reported in paper PMC7614683, “A small molecule PI3Kα activator for cardioprotection and neuroregeneration” (Nature, 2023).
Where two headings read alike, the source gives them in different places.

Legend:
Experiment in all cases: SelectScreen Z-LYTE kinase activity assay (SI Table 6)
Type in all cases: biochemical
[1] = molecular target: protein kinases of the Z-LYTE panel (Homo sapiens, UniProt P23458)
Outline: (§1)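 A single compound concentration of 1 μM was profiled in the vendor's Adapta, Lantha and Z-LYTE kinase assays. In gel-based follow-ups with 200 μM compound, phosphorylation was resolved on Phos-tag SDS-PAGE and quantified by Coomassie. The ATM run used 1 mM ATP with GST-p53 for 30 min, and the mTORC1 run used 250 μM ATP with 4E-BP1 for 3 h.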

[2] = molecular target: protein kinases of the Z-LYTE panel (Homo sapiens, UniProt Q02750); settings: MAP2K1 (MEK1), 1000 nM, [ATP] 100 μM
Outline: as §1

[3] = molecular target: protein kinases of the Z-LYTE panel (Homo sapiens, UniProt P49137)
Outline: as §1

[4] = molecular target: protein kinases of the Z-LYTE panel (Homo sapiens, UniProt P78527)
Outline: as §1

[5] = molecular target: T1, protein kinases of the Z-LYTE panel (Homo sapiens, UniProt O00141)
T1 sequence (O00141 1-431): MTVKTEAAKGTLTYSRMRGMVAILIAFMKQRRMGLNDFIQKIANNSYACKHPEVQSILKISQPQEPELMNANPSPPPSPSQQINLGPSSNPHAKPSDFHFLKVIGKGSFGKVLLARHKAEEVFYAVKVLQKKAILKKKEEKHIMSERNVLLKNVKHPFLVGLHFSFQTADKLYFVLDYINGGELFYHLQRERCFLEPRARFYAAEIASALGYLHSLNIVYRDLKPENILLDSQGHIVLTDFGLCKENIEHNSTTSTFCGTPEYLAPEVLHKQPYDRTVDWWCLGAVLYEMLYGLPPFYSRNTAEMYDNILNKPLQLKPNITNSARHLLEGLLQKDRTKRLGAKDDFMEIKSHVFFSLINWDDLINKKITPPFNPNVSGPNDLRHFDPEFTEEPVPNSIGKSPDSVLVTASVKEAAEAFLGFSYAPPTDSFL
Outline: as §1

[6] = molecular target: protein kinases of the Z-LYTE panel (Homo sapiens, UniProt P49760)
Outline: as §1

[7] = molecular target: T2, protein kinases of the Z-LYTE panel (Homo sapiens, UniProt Q12866)
T2 sequence (Q12866 21-999): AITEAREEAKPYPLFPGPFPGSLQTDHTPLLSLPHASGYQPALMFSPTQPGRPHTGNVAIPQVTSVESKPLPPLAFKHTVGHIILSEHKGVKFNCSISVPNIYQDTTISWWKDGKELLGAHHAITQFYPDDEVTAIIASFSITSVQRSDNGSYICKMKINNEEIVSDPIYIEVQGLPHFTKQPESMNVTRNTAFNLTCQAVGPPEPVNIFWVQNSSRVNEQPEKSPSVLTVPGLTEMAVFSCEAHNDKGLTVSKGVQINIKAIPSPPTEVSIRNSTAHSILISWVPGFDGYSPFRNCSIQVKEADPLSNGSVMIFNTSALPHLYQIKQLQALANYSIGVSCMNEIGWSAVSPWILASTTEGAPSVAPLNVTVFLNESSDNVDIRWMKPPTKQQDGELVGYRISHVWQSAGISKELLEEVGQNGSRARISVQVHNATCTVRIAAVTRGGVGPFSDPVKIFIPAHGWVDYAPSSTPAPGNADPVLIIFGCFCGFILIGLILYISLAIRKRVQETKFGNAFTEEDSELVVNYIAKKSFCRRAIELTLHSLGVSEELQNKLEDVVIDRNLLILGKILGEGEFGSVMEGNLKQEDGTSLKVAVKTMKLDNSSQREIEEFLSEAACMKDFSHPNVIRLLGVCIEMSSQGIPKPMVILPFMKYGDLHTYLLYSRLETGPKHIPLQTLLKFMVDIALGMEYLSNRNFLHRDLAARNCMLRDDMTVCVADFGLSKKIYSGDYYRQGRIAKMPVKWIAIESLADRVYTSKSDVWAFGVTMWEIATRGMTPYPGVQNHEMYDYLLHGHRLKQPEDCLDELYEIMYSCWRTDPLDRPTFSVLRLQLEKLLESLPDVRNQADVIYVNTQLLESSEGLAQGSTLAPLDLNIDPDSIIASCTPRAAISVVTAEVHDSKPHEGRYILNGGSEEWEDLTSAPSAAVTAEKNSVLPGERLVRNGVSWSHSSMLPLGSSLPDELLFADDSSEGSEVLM
Outline: as §1

protein kinases of the Z-LYTE panel (Homo sapiens, UniProt P23458), sequence (P23458 whole entry): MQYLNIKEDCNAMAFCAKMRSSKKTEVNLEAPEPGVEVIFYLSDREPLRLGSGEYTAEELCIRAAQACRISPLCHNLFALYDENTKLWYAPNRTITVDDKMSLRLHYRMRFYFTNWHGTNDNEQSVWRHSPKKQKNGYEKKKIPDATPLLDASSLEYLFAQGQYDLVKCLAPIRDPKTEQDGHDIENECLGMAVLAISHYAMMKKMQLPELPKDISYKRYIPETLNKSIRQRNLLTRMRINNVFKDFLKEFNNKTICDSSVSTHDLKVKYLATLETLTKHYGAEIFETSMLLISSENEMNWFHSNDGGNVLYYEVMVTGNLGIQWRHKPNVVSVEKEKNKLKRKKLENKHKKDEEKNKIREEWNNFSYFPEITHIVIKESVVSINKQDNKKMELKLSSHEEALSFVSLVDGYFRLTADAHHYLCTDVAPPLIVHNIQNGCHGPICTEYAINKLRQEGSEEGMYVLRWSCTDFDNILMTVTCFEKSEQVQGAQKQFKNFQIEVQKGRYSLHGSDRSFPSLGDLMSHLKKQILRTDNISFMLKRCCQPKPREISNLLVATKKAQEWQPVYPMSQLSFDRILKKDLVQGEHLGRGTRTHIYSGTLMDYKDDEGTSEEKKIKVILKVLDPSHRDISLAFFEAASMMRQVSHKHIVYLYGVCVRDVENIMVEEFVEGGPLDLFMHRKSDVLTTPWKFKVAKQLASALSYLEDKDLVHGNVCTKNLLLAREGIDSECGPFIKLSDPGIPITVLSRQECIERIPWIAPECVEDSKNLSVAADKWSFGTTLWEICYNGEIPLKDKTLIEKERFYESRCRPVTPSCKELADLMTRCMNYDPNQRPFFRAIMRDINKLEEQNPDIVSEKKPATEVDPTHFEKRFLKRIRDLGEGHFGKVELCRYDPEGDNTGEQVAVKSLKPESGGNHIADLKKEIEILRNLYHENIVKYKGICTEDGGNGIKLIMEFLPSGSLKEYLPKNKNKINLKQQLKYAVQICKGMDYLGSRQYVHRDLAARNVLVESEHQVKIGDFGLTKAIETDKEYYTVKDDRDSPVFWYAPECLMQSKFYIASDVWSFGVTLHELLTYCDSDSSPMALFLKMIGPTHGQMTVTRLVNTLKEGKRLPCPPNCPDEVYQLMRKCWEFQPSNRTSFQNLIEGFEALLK
protein kinases of the Z-LYTE panel (Homo sapiens, UniProt P49760), sequence (P49760 whole entry): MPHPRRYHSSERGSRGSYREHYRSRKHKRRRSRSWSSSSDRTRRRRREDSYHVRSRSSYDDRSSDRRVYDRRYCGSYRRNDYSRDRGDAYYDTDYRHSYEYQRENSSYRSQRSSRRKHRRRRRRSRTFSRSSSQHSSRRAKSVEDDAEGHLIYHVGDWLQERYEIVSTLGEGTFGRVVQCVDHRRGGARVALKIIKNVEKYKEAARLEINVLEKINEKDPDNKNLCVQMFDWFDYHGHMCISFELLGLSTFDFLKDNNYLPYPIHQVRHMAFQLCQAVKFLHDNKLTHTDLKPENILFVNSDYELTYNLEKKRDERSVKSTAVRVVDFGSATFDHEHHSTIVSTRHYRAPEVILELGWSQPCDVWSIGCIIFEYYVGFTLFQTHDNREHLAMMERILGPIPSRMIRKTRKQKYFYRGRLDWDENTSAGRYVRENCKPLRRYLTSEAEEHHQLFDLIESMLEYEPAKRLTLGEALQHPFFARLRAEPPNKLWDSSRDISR
protein kinases of the Z-LYTE panel (Homo sapiens, UniProt P49137), sequence (P49137 whole entry): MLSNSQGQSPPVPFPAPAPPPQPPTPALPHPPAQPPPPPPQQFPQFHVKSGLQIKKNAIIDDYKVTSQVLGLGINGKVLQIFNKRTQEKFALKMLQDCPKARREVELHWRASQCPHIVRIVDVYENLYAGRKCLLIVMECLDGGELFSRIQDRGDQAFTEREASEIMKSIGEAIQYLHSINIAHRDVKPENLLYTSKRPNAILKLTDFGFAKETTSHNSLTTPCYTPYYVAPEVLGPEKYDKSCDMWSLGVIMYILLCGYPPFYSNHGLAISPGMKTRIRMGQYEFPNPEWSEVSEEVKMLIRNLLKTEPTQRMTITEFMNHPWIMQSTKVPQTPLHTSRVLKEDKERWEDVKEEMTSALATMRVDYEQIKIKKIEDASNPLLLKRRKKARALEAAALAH
protein kinases of the Z-LYTE panel (Homo sapiens, UniProt Q02750), sequence (Q02750 whole entry): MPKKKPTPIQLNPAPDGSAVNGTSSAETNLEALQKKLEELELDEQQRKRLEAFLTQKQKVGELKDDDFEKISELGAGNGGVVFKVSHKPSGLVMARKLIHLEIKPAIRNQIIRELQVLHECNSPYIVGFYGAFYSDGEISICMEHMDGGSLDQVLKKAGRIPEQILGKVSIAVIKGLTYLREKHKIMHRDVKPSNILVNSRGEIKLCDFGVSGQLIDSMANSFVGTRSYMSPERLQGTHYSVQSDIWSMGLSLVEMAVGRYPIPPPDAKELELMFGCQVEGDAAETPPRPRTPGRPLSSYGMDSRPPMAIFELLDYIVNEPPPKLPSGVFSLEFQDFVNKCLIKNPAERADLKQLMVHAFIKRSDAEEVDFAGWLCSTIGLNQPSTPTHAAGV

## CCN1CCN(c2ccc(Nc3cc(Nc4cccc5c4N(C(C)=O)CC5)ccn3)cc2)CC1 [Compound 1938]
[1]; read-out: % Inhibition Point 1
  inhibition at 1 µM: -2%
[1]; read-out: % Inhibition Point 2
  inhibition at 1 µM: -2%
[1]; read-out: % Inhibition mean
  inhibition at 1 µM: -2%
[2]; read-out: % Inhibition Point 1
  inhibition at 1 µM: 4%
[2]; read-out: % Inhibition Point 2
  inhibition at 1 µM: 3.36%
[2]; read-out: % Inhibition mean
  inhibition at 1 µM: 3.61%
[3]; read-out: % Inhibition Point 1
  inhibition at 1 µM: -0.0637%
[3]; read-out: % Inhibition Point 2
  inhibition at 1 µM: -0.692%
[3]; read-out: % Inhibition mean
  inhibition at 1 µM: -0.378%
[4]; read-out: % Inhibition Point 1
  inhibition at 1 µM: 9.47%
[4]; read-out: % Inhibition Point 2
  inhibition at 1 µM: 10%
[4]; read-out: % Inhibition mean
  inhibition at 1 µM: 10%
[5]; read-out: % Inhibition Point 1
  inhibition at 1 µM: 4.46%
[5]; read-out: % Inhibition Point 2
  inhibition at 1 µM: 3.55%
[5]; read-out: % Inhibition mean
  inhibition at 1 µM: 4%
[6]; read-out: % Inhibition Point 1
  inhibition at 1 µM: 2.33%
[6]; read-out: % Inhibition Point 2
  inhibition at 1 µM: 1.66%
[6]; read-out: % Inhibition mean
  inhibition at 1 µM: 2%
[7]; read-out: % Inhibition Point 1
  inhibition at 1 µM: 12%
[7]; read-out: % Inhibition Point 2
  inhibition at 1 µM: 9%
[7]; read-out: % Inhibition mean
  inhibition at 1 µM: 11%
